Measurements taken from US20260007717A1, “ANTIMICROBIAL PEPTIDE COMPOUNDS AND METHODS OF USE” (priority 2022, published 2026).
In brackets after ≈: the same amount, converted by molar mass. Read-outs that look alike come from different tables or passages of the source. Positions of bridges follow the written chain, without caps; N, C: chain ends. Non-standard residues stand in square brackets, D forms with d. Residues, ends and D or L forms follow the SMILES beside them. *: point of attachment. Picolinoyl = O=C(c1ccccn1)*; Aib = CC(C)(N)C(=O)O

Assays:
[1] = test system: E. coli; assay type: cell-based
[2] = test system: L. salivarius; assay type: cell-based
Protocol: (§1) Briefly, P. gingivalis is grown under anaerobic conditions to mid-log phase as per Dominy et al. […] The microtiter plate method outlined by Jansen (ibid) was used to measure MICs. Compounds and bacteria are added to wells of a microtiter plate and grown anaerobically (P. gingivalis) or with CO2 (L. salivarius) for 24 to 72 hours. Growth is measured with light scattering at 592 nm on a plate reader and absorbance plotted against μg/ml of drug in each well.

[3] = test system: P. gingivalis; assay type: cell-based
Protocol: as §1

[4] = test system: A. baumannii; details: cited from earlier work
[5] = test system: A. baumannii YQ4; assay: ATP leakage assay; assay type: cell-based, Acinetobacter baumannii; details: 1×MIC, 30 min
Protocol: ATP leakage assay was performed using the Enhanced ATP Assay Kit of Beyotime (S0027) according to the manufacturer's manual. Briefly, the log-phase culture of A. baumannii YQ4 was prepared, washed and suspended in PBS as above. This suspension was exposed to 16 μg/ml COG1410, 16 μg/ml polymyxin B and 32 μg/ml tigecycline, respectively and incubated at 37° C. for 30 min. The supernatant was harvested and used for measurement of ATP levels. 100 μl of supernatant was mixed with 100 μl working solution and the chemiluminescence was measured by Biotek Synergy H1 plate reader. Untreated sample was set as negative control. The experiments were performed in triplicate.

[6] = test system: A. baumannii YQ4; details: COG1410 combined with polymyxin B
Protocol: The checkerboard method was performed to determine the fractional inhibitory concentration (FIC) index between COG1410 and other antimicrobials. Two-fold serial dilutions of antimicrobials and COG1410 were conducted and mixed in the 96-well plate. […] The experiments were conducted twice independently.

[7] = test system: pan-drug resistant (PDR) Acinetobacter baumannii YQ4; details: A. baumannii YQ4, LB broth
[8] = test system: PDR A. baumannii YQ4; assay: Dynamic time-kill assay in PBS; details: 30 min
Protocol: For dynamic time-kill assay, the overnight culture of A. baumannii YQ4 was transferred to fresh broth with initial OD600 0.01 and grown to the logarithmic phase. 1 ml culture was harvested, washed twice with 1× phosphate-buffered saline (PBS, pH7.4), containing 8 mM NaH2PO4, 2 mM KH2PO4, 2.6 mM KCl, 136 mM NaCl), and finally suspended in 1 ml PBS with OD600 0.5, which approximately corresponds to 1×10^8 CFU/ml. […] 100 μl aliquot was respectively taken at 0, 5, 10 and 30 min, serially diluted in PBS and plated on LB agar. The CFUs were counted after incubation at 37° C. for 18 h. […] Three independent experiments were performed.

[9] = test system: A. baumanii YQ4; assay: Induction of resistance through serial passage; details: after 55 passages at sub-MIC
Protocol: The initial concentration of the tested compounds was set up as 1/32×MIC and doubled every 10 passages. The 1 ml of bacterial culture was stored in 10% sterile glycerol at −80° C. every 5 passages. The MIC value of collected cultures and original strains were measured through the micro-dilution method.

Row | Compound | MIC E. coli [1] | MIC L. salivarius [2] | MIC P. gingivalis [3] | also measured
1 | CC(C)C[C@H](NC(=O)[C@H](CC(C)C)NC(=O)[C@H](CCCNC(=N)N)NC(=O)[C@H](CCCCN)NC(=O)C(C)(C)NC(=O)[C@H](CC(C)C)NC(=O)[C@H](CCCCN)NC(=O)[C@H](CCCNC(=N)N)NC(=O)[C@H](CC(C)C)NC(=O)C(C)(C)NC(=O)[C@H](CO)NC(=O)[C@H](C)NC(=O)c1ccccn1)C(N)=O [SEQ ID NO: 2, Picolinyl-AS-aib-LRKL-aib-KRLL-amide] (Picolinoyl-AS[Aib]LRKL[Aib]KRLL-NH2) | 32 µg/mL (≈ 21.7 µM) | 8 µg/mL (≈ 5.44 µM) | 2 to 32 µg/mL | –
2 | CC(C)C[C@@H]1NC(=O)[C@H](CC(C)C)NC(=O)[C@H](CCCNC(=N)N)NC(=O)[C@H](CCCCN)NC(=O)C(C)(C)NC(=O)[C@H](CC(C)C)NC(=O)[C@H](CCCCN)NC(=O)[C@H](CCCNC(=N)N)NC(=O)[C@H](CC(C)C)NC(=O)[C@@H](NC(=O)[C@H](CO)NC(=O)[C@H](C)NC(=O)c2ccccn2)CSSC[C@@H](C(N)=O)NC1=O [SEQ ID NO: 3, Picolinyl-AS-C-LRKL-aib-KRLL-C-amide] (Picolinoyl-ASCLRKL[Aib]KRLLC-NH2; disulfide 3-13) | – | – | – | MIC P. gingivalis ([3]; anaerobic BHI broth): 2 µg/mL (≈ 1.26 µM)
3 | CC(=O)N[C@@H](CC(C)C)C(=O)N[C@@H](CC(C)C)C(=O)N[C@@H](CCCNC(=N)N)C(=O)N[C@@H](CCCCN)C(=O)NC(C)(C)C(=O)N[C@@H](CC(C)C)C(=O)N[C@@H](CCCCN)C(=O)N[C@@H](CCCNC(=N)N)C(=O)N[C@@H](CC(C)C)C(=O)NC(C)(C)C(=O)N[C@@H](CO)C(=O)N[C@@H](C)C(N)=O [SEQ ID NO: 4, Acetyl-LLRK-aib-LKRL-aib-SA-CONH2] (Ac-LLRK[Aib]LKRL[Aib]SA-NH2) | 8 µg/mL (≈ 5.68 µM) | 8 µg/mL (≈ 5.68 µM) | 32 µg/mL (≈ 22.7 µM) | –
4 | CC(=O)N[C@H](CC(C)C)C(=O)N[C@H](CC(C)C)C(=O)N[C@H](CCCNC(=N)N)C(=O)N[C@H](CCCCN)C(=O)NC(C)(C)C(=O)N[C@H](CC(C)C)C(=O)N[C@H](CCCCN)C(=O)N[C@H](CCCCN)C(=O)N[C@H](CC(C)C)C(=O)NC(C)(C)C(=O)N[C@H](CO)C(=O)N[C@H](C)C(N)=O [SEQ ID NO: 5, Acetyl-llrk-Aib-lkkl-Aib-sa-amide] (Ac-[dL][dL][dR][dK][Aib][dL][dK][dK][dL][Aib][dS][dA]-NH2) | 16 µg/mL (≈ 11.6 µM) | – | 16 µg/mL (≈ 11.6 µM) | –
5 | CC(=O)N[C@H](C)C(=O)N[C@H](CO)C(=O)NC(C)(C)C(=O)N[C@H](CC(C)C)C(=O)N[C@H](CCCNC(=N)N)C(=O)N[C@H](CCCCN)C(=O)N[C@H](CC(C)C)C(=O)NC(C)(C)C(=O)N[C@H](CCCCN)C(=O)N[C@H](CCCNC(=N)N)C(=O)N[C@H](CC(C)C)C(=O)N[C@H](CC(C)C)C(N)=O [SEQ ID NO: 6, Acetyl-as-aib-lrkl-aib-krll-amide] (Ac-[dA][dS][Aib][dL][dR][dK][dL][Aib][dK][dR][dL][dL]-NH2) | 8 µg/mL (≈ 5.68 µM) | 8 µg/mL (≈ 5.68 µM) | 8 µg/mL (≈ 5.68 µM) | –
6 | CC(=O)N[C@@H](CC(C)C)C(=O)N[C@@H](CC(C)C)C(=O)N[C@@H](CCCNC(=N)N)C(=O)N[C@@H](CCCCN)C(=O)NC(C)(C)C(=O)N[C@@H](CC(C)C)C(=O)N[C@@H](CCCNC(=N)N)C(=O)N[C@@H](CCCCN)C(=O)N[C@@H](CC(C)C)C(=O)NC(C)(C)C(=O)N[C@@H](CO)C(=O)N[C@@H](C)C(=O)N[C@@H](CO)C(=O)NC(C)(C)C(=O)N[C@@H](CC(C)C)C(=O)N[C@@H](CCCNC(=N)N)C(=O)N[C@@H](CCCCN)C(=O)N[C@@H](CC(C)C)C(=O)NC(C)(C)C(=O)N[C@@H](CCCCN)C(=O)N[C@@H](CCCNC(=N)N)C(=O)N[C@@H](CC(C)C)C(=O)N[C@@H](CC(C)C)C(N)=O [SEQ ID NO: 7, Acetyl-LLRK-aib-LRKL-aib-SAS-aib-LRKL-aib-KRLL-CONH2] (Ac-LLRK[Aib]LRKL[Aib]SAS[Aib]LRKL[Aib]KRLL-NH2) | 8 µg/mL (≈ 2.98 µM) | 8 µg/mL (≈ 2.98 µM) | 16 µg/mL (≈ 5.95 µM) | –
7 | CC(=O)N[C@@H](CC(C)C)C(=O)N[C@@H](CCCNC(=N)N)C(=O)N[C@H](C(=O)N[C@@H](CCCNC(=N)N)C(=O)N[C@@H](CS)C(=O)N[C@@H](C)C(=O)N[C@@H](CO)C(=O)NC(C)(C)C(=O)N[C@@H](CC(C)C)C(=O)N[C@@H](CCCNC(=N)N)C(=O)N[C@@H](CCCCN)C(=O)N[C@@H](CC(C)C)C(=O)NC(C)(C)C(=O)N[C@@H](CCCCN)C(=O)N[C@@H](CCCNC(=N)N)C(=O)N[C@@H](CC(C)C)C(=O)N[C@@H](CC(C)C)C(N)=O)C(C)C [SEQ ID NO: 8, Acetyl-LRVRCAS-aib-LRKL-aib-KRLL-CONH2] (Ac-LRVRCAS[Aib]LRKL[Aib]KRLL-NH2) | 8 µg/mL (≈ 3.93 µM) | 16 µg/mL (≈ 7.86 µM) | 64 µg/mL (≈ 31.4 µM) | –
8 | CC(=O)N[C@@H](CC(C)C)C(=O)N[C@@H](CCCNC(=N)N)C(=O)N[C@H](C(=O)N[C@@H](CCCNC(=N)N)C(=O)N[C@@H](CC(C)C)C(=O)N[C@@H](C)C(=O)N[C@@H](CO)C(=O)NC(C)(C)C(=O)N[C@@H](CC(C)C)C(=O)N[C@@H](CCCCN)C(=O)N[C@@H](CCCCN)C(=O)N[C@@H](CC(C)C)C(=O)NC(C)(C)C(=O)N[C@@H](CCCCN)C(=O)N[C@@H](CCCNC(=N)N)C(=O)N[C@@H](CC(C)C)C(=O)N[C@@H](CC(C)C)C(N)=O)C(C)C [SEQ ID NO: 9, Acetyl-LRVRLAS-aib-LKKL-aib-KRLL-Amide] (Ac-LRVRLAS[Aib]LKKL[Aib]KRLL-NH2) | 4 µg/mL (≈ 1.98 µM) | 4 µg/mL (≈ 1.98 µM) | 8 µg/mL (≈ 3.96 µM) | –
9 | CC(=O)N[C@H](CC(C)C)C(=O)N[C@H](CC(C)C)C(=O)N[C@H](CCCNC(=N)N)C(=O)N[C@H](CCCCN)C(=O)NC(C)(C)C(=O)N[C@H](CC(C)C)C(=O)N[C@H](CCCCN)C(=O)N[C@H](CCCNC(=N)N)C(=O)N[C@H](CC(C)C)C(=O)NC(C)(C)C(=O)N[C@H](CO)C(=O)N[C@H](C)C(=O)N[C@H](CC(C)C)C(=O)N[C@H](CCCNC(=N)N)C(=O)N[C@@H](C(=O)N[C@H](CCCNC(=N)N)C(=O)N[C@H](CC(C)C)C(N)=O)C(C)C [SEQ ID NO: 11, Acetyl-llrk-aib-lkrl-aib-salrvrl-amide] (Ac-[dL][dL][dR][dK][Aib][dL][dK][dR][dL][Aib][dS][dA][dL][dR][dV][dR][dL]-NH2) | 4 µg/mL (≈ 1.95 µM) | – | – | MIC L. salivarius ([2]; 5% CO2, BHI broth): 16 µg/mL (≈ 7.82 µM); MIC P. gingivalis ([3]; anaerobic BHI broth): 8 µg/mL (≈ 3.91 µM)
10 | CC(=O)N[C@@H](CC(C)C)C(=O)N[C@@H](CCCNC(=N)N)C(=O)N[C@H](C(=O)N[C@@H](CCCNC(=N)N)C(=O)N[C@@H](CC(C)C)C(=O)N[C@@H](C)C(=O)N[C@@H](CO)C(=O)N[C@@H](Cc1c[nH]cn1)C(=O)N[C@@H](CC(C)C)C(=O)N[C@@H](CCCNC(=N)N)C(=O)N[C@@H](CCCCN)C(=O)N[C@@H](CC(C)C)C(=O)N[C@@H](CCCNC(=N)N)C(=O)N[C@@H](CCCCN)C(=O)N[C@@H](CCCNC(=N)N)C(=O)N[C@@H](CC(C)C)C(=O)N[C@@H](CC(C)C)C(=O)N[C@@H](C)C(=O)N[C@@H](CO)C(=O)NC(C)(C)C(=O)N[C@@H](CC(C)C)C(=O)N[C@@H](CCCNC(=N)N)C(=O)N[C@@H](CCCCN)C(=O)N[C@@H](CC(C)C)C(=O)NC(C)(C)C(=O)N[C@@H](CCCCN)C(=O)N[C@@H](CCCNC(=N)N)C(=O)N[C@@H](CC(C)C)C(=O)N[C@@H](CC(C)C)C(N)=O)C(C)C [SEQ ID NO: 12, Acetyl-LRVRLASHLRKLRKRLLAS-aib-LRKL-aib-KRLL-CONH2] (Ac-LRVRLASHLRKLRKRLLAS[Aib]LRKL[Aib]KRLL-NH2) | 4 µg/mL (≈ 1.14 µM) | 64 µg/mL (≈ 18.2 µM) | 16 µg/mL (≈ 4.55 µM) | –
11 | SAAP-148 | – | – | – | LC99.9 ([4]; 50% pooled plasma): 12.8 UM; LC99.9 ([4]; PBS): 1.6 µM
12 | polymyxin B [reference compound] | – | – | – | ATP leakage [5]: released more ATP compared to untreated cells; working concentration in the combination [6]: 1 µg/mL; MIC [7]: 16 µg/mL; reduction in CFU ([8]; 1×MIC): 2 log; reduction in CFU ([8]; 5×MIC): 4 logs; increase of MIC [9]: 64 fold
